Data: PubChem BioAssay (NCI)
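Assay format: 96-well plates, 48-hour exposure. GI50: concentration for 50% inhibition of growth. Definition used: TGI = concentration required for complete inhibition of growth.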

Columns and labels:
Test in all cases: NCI anticancer screen, dose series, 48 h
[1] = test system: UACC-257 melanoma
[2] = test system: SNB-19 CNS
[3] = test system: EKVX NSCLC
[4] = test system: SK-MEL-2 melanoma
[5] = test system: MALME-3M melanoma
[6] = test system: HT29 colon
[7] = test system: K-562 leukemia
[8] = test system: CAKI-1 renal
[9] = test system: HCT-116 colon
[10] = test system: MDA-MB-231 breast

Compound	TGI [1]	TGI [2]	TGI [3]	TGI [4]	TGI [5]	TGI [6]	TGI [7]	TGI [8]	TGI [9]	GI50 [1]	GI50 [2]	GI50 [3]	GI50 [4]	GI50 [10]	TGI [10]	GI50 [7]	GI50 [9]	GI50 [8]	GI50 [5]	GI50 [6]
C=CCNC(=O)N(CCCCC(NC(C)=O)C(=O)NCc1ccccc1)Cc1ccccc1 (stereo not given)	> 100 µM	> 100 µM	> 100 µM	> 100 µM	> 100 µM	> 100 µM	> 100 µM	> 100 µM												
O=C(O)C1=C(O)C(C(=O)O)C23CCCCCCCCCCC12C(C(=O)O)C(O)=C3C(=O)O (stereo not given)	> 100 µM	> 100 µM	> 100 µM	> 100 µM	> 100 µM	> 100 µM	> 100 µM													
COC(=O)CC1C[C@H](C#N)N(C(=O)c2ccccc2)C[C@@H]1CC[N+](=O)[O-] (stereo not given in full)	> 100 µM	> 100 µM	> 100 µM	0.834 µM	> 100 µM	> 100 µM	> 100 µM		> 100 µM											
CCN(CC)c1c(C(=O)/C=C/c2ccc(Cl)cc2)c(-c2ccccc2)nn(C)c1=O	3.76 µM	3.98 µM	6.87 µM	3.62 µM	4.35 µM	3.32 µM	7.27 µM	21.5 µM	3.11 µM											
O=[N+]([O-])c1ccc(C[P+](c2ccccc2)(c2ccccc2)c2ccccc2)cc1	47.3 µM	> 100 µM	> 100 µM	> 100 µM	> 100 µM	> 100 µM	> 100 µM		> 100 µM											
CCOC(=O)/C(C=Nc1ccc(-c2nc3ccccc3[nH]2)cc1)=C(/C)O	28.3 µM	> 50 µM	38.9 µM	22.6 µM			14.8 µM	> 50 µM	14.5 µM	11.5 µM	32.7 µM	11.9 µM	9.14 µM	9.65 µM	31.3 µM	4.51 µM	7.82 µM	17.6 µM		
Cc1cccc(/C=C/c2c(C(=O)/C=C/c3ccccc3)c(C)nc3ccccc23)c1	3.28 µM	3.04 µM	3.26 µM	3.63 µM	3.2 µM	16.9 µM		2.59 µM		1.65 µM	1.67 µM	1.75 µM	1.77 µM					1.29 µM	1.79 µM	2.12 µM
CCOC(=O)C12CCCC1(O)N(NC(=O)OC(C)(C)C)C(C)=C2C(=O)OC (stereo not given)	> 100 µM	> 100 µM	> 100 µM	> 100 µM	> 100 µM	> 100 µM	> 100 µM	> 100 µM	> 100 µM											
COC(=O)NC(=O)c1cn(C2OC(CO)C(O)C2O)c(=O)[nH]c1=O (stereo not given)	> 100 µM	> 100 µM		> 100 µM	> 100 µM	> 100 µM	> 100 µM	> 100 µM	> 100 µM											
COC12C=C/C(=C(/C(=O)OCc3cncnc3)C(=O)CCCCCCCCC3(OC)C=C/C(=C(/C(=O)OCc4cncnc4)C(=O)CCCCCCCC1)O3)O2	2.94 µM	> 50 µM	2.39 µM	18.1 µM		1.09 µM	1.14 µM	2.11 µM	0.433 µM	0.937 µM	0.458 µM	0.717 µM	1.13 µM	0.597 µM	> 50 µM	0.188 µM	0.146 µM	0.667 µM		0.21 µM
CCOC(=O)c1nn2c(nc1=O)sc1ccc3ccccc3c12	> 100 µM	> 100 µM	> 100 µM	> 100 µM	> 100 µM	> 100 µM	> 100 µM	> 100 µM	> 100 µM											
NC(=O)C(=O)N/N=C1\C(=O)N(c2ccc(Cl)cc2Cl)C(=O)C1C(=O)Nc1ccc(Cl)cc1Cl (stereo not given)	> 100 µM	> 100 µM	> 100 µM	> 100 µM	> 100 µM	> 100 µM	> 100 µM	> 100 µM	> 100 µM											
N=C1C(c2nc3ccccc3s2)=C(O)CN1c1ccc(F)c(Cl)c1	> 100 µM	85.7 µM	> 100 µM	> 100 µM		> 100 µM	> 100 µM	98.1 µM	> 100 µM	22.9 µM	21.5 µM	48.5 µM	39 µM	15.9 µM	47.3 µM	31.1 µM	24.2 µM	14.8 µM		28.9 µM
O/N=C1/C(=C/c2ccc3c(c2)OCO3)CCCC1C(NO)c1ccc2c(c1)OCO2 (stereo not given)	33.9 µM	> 100 µM	89.1 µM	48.1 µM	48.2 µM	30.4 µM	71 µM	94.6 µM	31.9 µM											
O=C(O)CCN(CCCCN(CCC(=O)O)CCC(=O)O)CCC(=O)O			> 100 µM	> 100 µM	> 100 µM	> 100 µM	> 100 µM	> 100 µM	> 100 µM											
CCCCCCCCCCCc1nnc(N)o1	> 100 µM	50.7 µM		> 100 µM	> 100 µM	> 100 µM	> 100 µM		> 100 µM											
COc1ccc(/C=N/N=C(\N)NO)cc1O		> 100 µM	> 100 µM	> 100 µM	63.6 µM	> 100 µM	> 100 µM	> 100 µM	> 100 µM											
COc1cc(Br)c(C=Nc2cccc3cc(OC)c(OC)cc23)cc1OC	> 100 µM	> 100 µM	> 100 µM		> 100 µM	98.4 µM	> 100 µM	> 100 µM	> 100 µM											
CC1=C(C(=O)Nc2cc(=O)n(C)c(=O)n2C)C(c2ccco2)C(C(=O)Nc2cc(=O)n(C)c(=O)n2C)=C(C)N1	> 100 µM	> 100 µM	> 100 µM	> 100 µM	> 100 µM	> 100 µM	> 100 µM	> 100 µM												
COc1ccc(C23C(=O)c4ccccc4N2O[C@H]2C(=O)N(c4ccccc4)C(=O)[C@H]23)cc1 (stereo not given in full)	> 100 µM	> 100 µM	> 100 µM	> 100 µM	> 100 µM	> 100 µM	> 100 µM	> 100 µM	> 100 µM											
Cc1nnn[n-]1.N.N.N.N.N.[Cl-].[Co+3]	> 100 µM	> 100 µM	> 100 µM	> 100 µM	> 100 µM	> 100 µM	> 100 µM		> 100 µM	> 100 µM	> 100 µM	> 100 µM	> 100 µM			> 100 µM	> 100 µM		> 100 µM	> 100 µM
O=C1CC(O)CC(=O)C1=C(O)CCCCCCCCCCc1ccccc1 (stereo not given)	> 100 µM	> 100 µM	> 100 µM	77.1 µM		> 100 µM	> 100 µM	> 100 µM	> 100 µM											
O=C(O)CCC(=O)N1c2ccccc2CC1c1c[nH]c2ccccc12 (stereo not given)	> 100 µM	> 100 µM	> 100 µM	> 100 µM	> 100 µM	> 100 µM	> 100 µM	> 100 µM	> 100 µM											
O=C1N(C2CCCCC2)CC12CCCCC2		> 100 µM	> 100 µM	> 100 µM	> 100 µM		> 100 µM		> 100 µM											
CC1=C(c2ccccc2)C(c2ccccc2)=C(c2ccccc2)C2(c3ccccc3)C(=O)C(C)CN12 (stereo not given)	> 100 µM	> 100 µM	> 100 µM	> 100 µM	> 100 µM	> 100 µM		> 100 µM	> 100 µM											
N.N.N.N.N.NC(=O)c1nn[n-]n1.[Cl-].[Co+3]	> 100 µM	> 100 µM	> 100 µM	> 100 µM	> 100 µM	> 100 µM	> 100 µM	> 100 µM	> 100 µM	> 100 µM	> 100 µM	> 100 µM	> 100 µM			> 100 µM	> 100 µM	> 100 µM	> 100 µM	> 100 µM
CC1(C)O[C@H]2[C@H](O)C[C@](O)(CO)C[C@H]2O1	> 100 µM	> 100 µM	> 100 µM	> 100 µM	> 100 µM	> 100 µM	> 100 µM	> 100 µM	> 100 µM											
O=C(COc1ccc(Cl)cc1)N1N=C(c2ccc(Cl)cc2)CC1(O)c1ccccc1 (stereo not given)	44.3 µM	> 100 µM	91.4 µM	80.7 µM	47.4 µM	26.3 µM	> 42.7 µM	> 100 µM	26.3 µM											
N.N.N.N.[Co+3].[N-]=[N+]=[N-].[N-]=[N+]=[N-].[N-]=[N+]=[N-]	> 100 µM	> 100 µM	> 100 µM	> 100 µM	> 100 µM	> 100 µM	> 100 µM		> 100 µM	> 100 µM	> 100 µM	> 100 µM	> 100 µM			> 100 µM	85.5 µM		78.1 µM	> 100 µM
CCc1ccccc1NC(=O)C1=C(C)NC(C)=C(C(=O)Nc2ccccc2CC)C1c1ccccc1Cl	> 100 µM	> 100 µM	> 100 µM	> 100 µM	> 100 µM	> 100 µM	> 100 µM	> 100 µM	> 100 µM											
